Results published in patent US20090123545A1, “Rapid Onset and Short Term Modafinil Compositions and Methods of Use Thereof” (priority 2005, published 2009).
“And” between values parts separate entries of the source, which are not always exact repeats. Equal entries are not always repeated. “Also recorded” adds a separate entry of the source. Where two headings read alike, the source gives them in different places.

Assays:
[1] = cited from earlier work
normal human volunteer = test: Double blind study of sub-lingual d-modafinil composition in a normal human volunteer; format: in vivo
Description: The test subject was given three vials: one vial containing the base formulation (as in Example 1) to test the taste and delivery means, and two coded vials. One of the coded vials contained 100 mg of d-modafinil formulation, and the second coded vial contained placebo (an equivalent amount of formulation).
The subject was instructed to place the contents of the test formulation under the tongue, to allow the formulation to dissolve over two minutes, and to rinse any residual material with some water.

extracellular dopamine = settings: in vivo; cited from earlier work
dopamine reuptake pump = dopamine reuptake pump (Homo sapiens, UniProt Q01959); settings: in vitro studies; cited from earlier work
Sequence of dopamine reuptake pump (Q01959 whole entry): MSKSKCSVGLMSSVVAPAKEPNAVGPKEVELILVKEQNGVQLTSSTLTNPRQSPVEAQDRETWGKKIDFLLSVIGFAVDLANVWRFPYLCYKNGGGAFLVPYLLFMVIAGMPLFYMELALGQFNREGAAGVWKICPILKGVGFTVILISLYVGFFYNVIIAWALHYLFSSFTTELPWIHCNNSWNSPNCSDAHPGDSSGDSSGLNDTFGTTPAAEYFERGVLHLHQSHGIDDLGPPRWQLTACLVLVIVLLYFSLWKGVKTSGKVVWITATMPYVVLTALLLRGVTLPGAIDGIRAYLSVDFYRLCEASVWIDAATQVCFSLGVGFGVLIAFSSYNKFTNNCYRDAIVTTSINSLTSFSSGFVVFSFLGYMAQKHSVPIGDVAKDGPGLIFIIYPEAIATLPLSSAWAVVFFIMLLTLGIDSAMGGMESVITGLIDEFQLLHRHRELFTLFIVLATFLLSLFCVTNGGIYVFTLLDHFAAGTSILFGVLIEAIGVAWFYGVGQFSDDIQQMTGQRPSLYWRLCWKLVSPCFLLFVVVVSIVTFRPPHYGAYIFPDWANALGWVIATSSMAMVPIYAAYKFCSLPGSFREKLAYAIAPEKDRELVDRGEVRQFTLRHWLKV

normal human volunteers = test: Double blind crossover study of sub-lingual d-modafinil in normal human volunteers (VAS, difficulty to fall asleep); format: in vivo; set-up: key to Visual Analog Scale (0 to 3), difficulty to fall asleep: 0: fell asleep as usual; 1: slight, noticeable change; 2: noticeable change; 3: extreme change (kept awake most of night); settings: 200 mg sublingual, one hour before bedtime
Description: Two subjects received a set of coded vials containing either 200 mg of d-modafinil formulated according to Example 1 or an equivalent placebo formulation.
The subjects were given the following instructions:
Start testing at approximately the same time every evening, one hour before bedtime.
Randomly select one of the coded vials each day.
Open the vials and place the powder under your tongue.
Allow the powder to dissolve slowly for approximately 1-2 minutes.
After the powder is fully dissolved, you may drink some water.
Record observations in a Visual Analogue Scale (VAS) describing the difficulty to fall asleep.

mice = settings: cited from earlier work

SMILES | time to reach maximum plasma concentrations ([1]; after a single oral dose) [h] | half-life (T1/2) in the human body [1] | fraction of modafinil eliminated by the liver ([1]; ingestion of PROVIGIL tablets, humans) [%] | effect on wakefulness (subject's report) (normal human volunteer; 200 mg Provigil at 10 p.m., same subject about one week before, not blinded) | effect on extracellular dopamine (extracellular dopamine) | effect on reuptake of dopamine (dopamine reuptake pump) | amount in the circulation compared with l-modafinil ([1]; after use of racemic modafinil) | effect on wakefulness (subject's blinded report) (normal human volunteer; 100 mg sublingual at 11:15 p.m., one subject) | wakefulness effect compared with 200 mg racemic modafinil (normal human volunteer; 100 mg sublingual, same subject) | subject's reported observations on sleep and alertness (normal human volunteers) | Visual Analog Scale (0 to 3), difficulty to fall asleep (normal human volunteers; Subject 1, Subject 2) | pharmacological activity compared with the modafinil racemic compound (mice) | half-life (T1/2) in the human body ([1]; listed as 1-modafinil) [h]
NC(=O)C[S+]([O-])C(c1ccccc1)c1ccccc1 (racemic) [racemic modafinil, 2-[(diphenylmethyl)sulfinyl]acetamide] | 2 to 4 | about 15 hours | ≤ 90 | very pronounced effect | increases extracellular dopamine | inhibit the reuptake of dopamine | – | – | – | – | – | – | –
NC(=O)C[S@+]([O-])C(c1ccccc1)c1ccccc1 [d-modafinil, (d)-(+)-modafinil] | – | – | – | – | – | – | three times less | active | neither test substance kept them awake as strongly or as long as the 200 mg racemic modafinil | took longer than usual to fall asleep; also recorded: significantly more alert | 1 and 2 | same pharmacological activity | –
NC(=O)C[S@@+]([O-])C(c1ccccc1)c1ccccc1 [l-modafinil] | – | 10 to 14 h | – | – | – | – | – | – | – | – | – | same pharmacological activity | 13 to 16
